In US7074789B2, “Kinase inhibitors” (Amgen Inc., priority 1999, dated 2006):

Experiments:
Type in all cases: biochemical
PDGFRB = biological target: T1, PDGFRB (Homo sapiens, UniProt P09619); test: Kinase inhibition assay (33P transfer), PDGFRB; settings: read-out: PDGFRB-1
T1 construct: Kinases are expressed as either kinase domains or full length constructs; made in house

Hck-1 = biological target: T2, Hck-1 (Homo sapiens, UniProt P08631); test: Kinase inhibition assay (33P transfer), Hck; settings: Table 6, Hck-1 kinase inhibition class
T2 construct: Kinases are expressed as either kinase domains or full length constructs; made in house
T2 sequence (P08631 whole entry, the tested form may be a part): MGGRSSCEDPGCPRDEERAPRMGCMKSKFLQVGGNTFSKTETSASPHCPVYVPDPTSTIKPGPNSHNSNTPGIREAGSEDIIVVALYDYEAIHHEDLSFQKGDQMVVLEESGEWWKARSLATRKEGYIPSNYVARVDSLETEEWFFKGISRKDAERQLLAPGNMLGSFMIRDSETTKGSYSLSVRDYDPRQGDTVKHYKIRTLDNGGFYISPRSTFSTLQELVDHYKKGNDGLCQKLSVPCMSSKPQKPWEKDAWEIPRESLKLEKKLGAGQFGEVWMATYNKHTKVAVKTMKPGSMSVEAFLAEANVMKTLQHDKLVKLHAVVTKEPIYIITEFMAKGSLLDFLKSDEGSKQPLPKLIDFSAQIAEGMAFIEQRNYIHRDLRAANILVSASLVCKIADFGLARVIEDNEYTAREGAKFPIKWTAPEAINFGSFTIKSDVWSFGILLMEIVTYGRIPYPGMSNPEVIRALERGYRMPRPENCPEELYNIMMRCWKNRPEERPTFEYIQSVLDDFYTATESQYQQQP

Kdr = biological target: T3, Kdr (Homo sapiens, UniProt P35968); test: Kinase inhibition assay (33P transfer), Kdr; settings: Table 3; read-out: KDR-1
T3 construct: Kinases are expressed as either kinase domains or full length constructs; made in house
T3 sequence (P35968 20-1356, species assumed): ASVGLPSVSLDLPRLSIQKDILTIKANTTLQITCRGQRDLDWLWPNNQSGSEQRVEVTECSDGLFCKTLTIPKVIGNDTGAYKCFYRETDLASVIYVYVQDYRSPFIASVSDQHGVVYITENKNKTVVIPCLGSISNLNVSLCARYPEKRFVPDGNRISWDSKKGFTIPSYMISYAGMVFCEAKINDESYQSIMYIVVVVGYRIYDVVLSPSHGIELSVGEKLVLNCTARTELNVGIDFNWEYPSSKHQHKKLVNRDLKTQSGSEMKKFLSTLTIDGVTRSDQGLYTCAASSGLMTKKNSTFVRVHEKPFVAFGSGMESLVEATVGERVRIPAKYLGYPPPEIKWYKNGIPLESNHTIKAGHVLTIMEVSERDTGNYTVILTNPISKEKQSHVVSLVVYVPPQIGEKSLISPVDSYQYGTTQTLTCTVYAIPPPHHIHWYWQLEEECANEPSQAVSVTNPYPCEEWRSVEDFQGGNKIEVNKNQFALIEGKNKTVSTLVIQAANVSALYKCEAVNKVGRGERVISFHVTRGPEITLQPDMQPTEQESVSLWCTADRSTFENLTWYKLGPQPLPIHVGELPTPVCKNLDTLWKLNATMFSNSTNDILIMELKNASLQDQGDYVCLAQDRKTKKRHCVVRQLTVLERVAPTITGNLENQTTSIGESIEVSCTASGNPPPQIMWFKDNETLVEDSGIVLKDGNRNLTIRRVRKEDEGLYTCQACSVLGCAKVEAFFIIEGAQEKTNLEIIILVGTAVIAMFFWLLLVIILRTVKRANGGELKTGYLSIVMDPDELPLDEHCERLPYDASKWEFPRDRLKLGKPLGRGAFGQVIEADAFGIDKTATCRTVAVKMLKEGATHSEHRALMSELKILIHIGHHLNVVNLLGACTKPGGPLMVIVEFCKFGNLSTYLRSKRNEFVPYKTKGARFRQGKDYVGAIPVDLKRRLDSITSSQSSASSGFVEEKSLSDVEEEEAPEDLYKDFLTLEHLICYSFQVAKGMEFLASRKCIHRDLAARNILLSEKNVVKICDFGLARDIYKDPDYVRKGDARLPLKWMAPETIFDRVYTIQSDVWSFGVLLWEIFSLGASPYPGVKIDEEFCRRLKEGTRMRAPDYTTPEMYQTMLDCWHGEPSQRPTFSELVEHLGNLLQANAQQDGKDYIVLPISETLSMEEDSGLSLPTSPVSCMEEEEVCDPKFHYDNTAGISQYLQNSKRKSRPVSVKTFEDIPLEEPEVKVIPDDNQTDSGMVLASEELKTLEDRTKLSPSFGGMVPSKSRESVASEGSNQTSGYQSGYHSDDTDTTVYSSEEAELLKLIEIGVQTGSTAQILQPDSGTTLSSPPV
Method in brief: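 Recombinant kinase-domain or full-length fusion proteins (GST or His tag) served as enzyme. Substrate poly(Glu,Tyr) 4:1 or poly(Arg,Ser) 3:1 was bound to the plate; transferred 33P was read by liquid scintillation following acid washing.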

FGFR1 = biological target: T4, FGFR1 (Homo sapiens, UniProt P11362); test: Kinase inhibition assay (33P transfer), FGFR1; settings: read-out: FGFR1-1
T4 construct: Kinases are expressed as either kinase domains or full length constructs; made in house

Fyn = biological target: T5, Fyn (Homo sapiens, UniProt P06241); test: Kinase inhibition assay (33P transfer), Fyn; settings: read-out: Fyn-1
T5 construct: Kinases are expressed as either kinase domains or full length constructs; made in house
T5 sequence (P06241 whole entry, species assumed, the tested form may be a part): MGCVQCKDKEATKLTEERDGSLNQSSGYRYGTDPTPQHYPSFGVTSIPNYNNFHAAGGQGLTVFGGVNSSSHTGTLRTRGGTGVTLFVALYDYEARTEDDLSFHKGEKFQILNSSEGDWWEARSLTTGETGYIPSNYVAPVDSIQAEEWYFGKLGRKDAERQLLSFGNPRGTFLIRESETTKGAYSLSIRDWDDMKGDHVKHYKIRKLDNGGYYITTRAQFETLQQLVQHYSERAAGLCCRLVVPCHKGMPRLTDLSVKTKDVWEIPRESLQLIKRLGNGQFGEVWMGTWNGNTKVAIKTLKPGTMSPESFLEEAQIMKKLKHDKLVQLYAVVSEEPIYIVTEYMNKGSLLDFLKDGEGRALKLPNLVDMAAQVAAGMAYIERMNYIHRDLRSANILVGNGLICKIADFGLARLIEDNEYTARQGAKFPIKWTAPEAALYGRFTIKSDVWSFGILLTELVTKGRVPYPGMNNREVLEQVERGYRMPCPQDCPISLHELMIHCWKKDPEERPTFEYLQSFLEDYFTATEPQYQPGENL
Method in brief: (§1)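 Activity read as 33P incorporation from ATP into poly(Glu,Tyr) 4:1 or poly(Arg,Ser) 3:1 substrate bound to microtiter plates, measured by scintillation after acid washing. Enzymes were affinity-purified GST or polyHis fusions (kinase domain or full length) from E. coli or baculovirus; IC50 = 50% reduction in labelled phosphate.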

Itk = biological target: T6, Itk (Homo sapiens, UniProt Q08881); test: Kinase inhibition assay (33P transfer), Itk; settings: Table 3; read-out: Itk-1
T6 construct: Kinases are expressed as either kinase domains or full length constructs; made in house
T6 sequence (Q08881 1-620): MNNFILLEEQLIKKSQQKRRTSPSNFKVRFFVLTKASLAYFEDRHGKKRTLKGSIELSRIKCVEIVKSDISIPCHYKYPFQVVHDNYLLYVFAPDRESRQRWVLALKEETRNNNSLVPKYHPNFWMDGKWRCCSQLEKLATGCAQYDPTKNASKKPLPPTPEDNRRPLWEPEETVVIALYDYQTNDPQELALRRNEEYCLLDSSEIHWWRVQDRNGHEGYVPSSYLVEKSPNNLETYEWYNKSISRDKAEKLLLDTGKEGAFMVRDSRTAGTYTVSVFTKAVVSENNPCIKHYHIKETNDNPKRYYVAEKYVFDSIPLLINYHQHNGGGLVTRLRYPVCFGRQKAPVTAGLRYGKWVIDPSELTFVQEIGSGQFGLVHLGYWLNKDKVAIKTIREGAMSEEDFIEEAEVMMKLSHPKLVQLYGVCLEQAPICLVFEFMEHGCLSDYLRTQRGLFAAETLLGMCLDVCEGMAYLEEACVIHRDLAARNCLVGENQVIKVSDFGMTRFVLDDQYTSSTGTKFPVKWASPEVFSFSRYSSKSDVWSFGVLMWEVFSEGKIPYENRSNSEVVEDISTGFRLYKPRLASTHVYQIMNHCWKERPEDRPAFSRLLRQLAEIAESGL
Method in brief: as §1

c-Met = biological target: T7, c-Met (Homo sapiens, UniProt P08581); test: Kinase inhibition assay (33P transfer), c-Met; settings: Table 2, kinase inhibition class; read-out: Met-1
T7 construct: Kinases are expressed as either kinase domains or full length constructs; made in house
Method in brief: as §1

Flt-1 = biological target: T8, Flt-1 (Homo sapiens, UniProt P17948); test: Kinase inhibition assay (33P transfer), Flt-1
T8 construct: Kinases are expressed as either kinase domains or full length constructs; made in house
Method in brief: as §1

Tek = biological target: T9, Tek (Homo sapiens, UniProt Q02763); test: Kinase inhibition assay (33P transfer), Tek; settings: read-out: Tek-1
T9 construct: Kinases are expressed as either kinase domains or full length constructs; made in house
T9 sequence (Q02763 23-1124, species assumed): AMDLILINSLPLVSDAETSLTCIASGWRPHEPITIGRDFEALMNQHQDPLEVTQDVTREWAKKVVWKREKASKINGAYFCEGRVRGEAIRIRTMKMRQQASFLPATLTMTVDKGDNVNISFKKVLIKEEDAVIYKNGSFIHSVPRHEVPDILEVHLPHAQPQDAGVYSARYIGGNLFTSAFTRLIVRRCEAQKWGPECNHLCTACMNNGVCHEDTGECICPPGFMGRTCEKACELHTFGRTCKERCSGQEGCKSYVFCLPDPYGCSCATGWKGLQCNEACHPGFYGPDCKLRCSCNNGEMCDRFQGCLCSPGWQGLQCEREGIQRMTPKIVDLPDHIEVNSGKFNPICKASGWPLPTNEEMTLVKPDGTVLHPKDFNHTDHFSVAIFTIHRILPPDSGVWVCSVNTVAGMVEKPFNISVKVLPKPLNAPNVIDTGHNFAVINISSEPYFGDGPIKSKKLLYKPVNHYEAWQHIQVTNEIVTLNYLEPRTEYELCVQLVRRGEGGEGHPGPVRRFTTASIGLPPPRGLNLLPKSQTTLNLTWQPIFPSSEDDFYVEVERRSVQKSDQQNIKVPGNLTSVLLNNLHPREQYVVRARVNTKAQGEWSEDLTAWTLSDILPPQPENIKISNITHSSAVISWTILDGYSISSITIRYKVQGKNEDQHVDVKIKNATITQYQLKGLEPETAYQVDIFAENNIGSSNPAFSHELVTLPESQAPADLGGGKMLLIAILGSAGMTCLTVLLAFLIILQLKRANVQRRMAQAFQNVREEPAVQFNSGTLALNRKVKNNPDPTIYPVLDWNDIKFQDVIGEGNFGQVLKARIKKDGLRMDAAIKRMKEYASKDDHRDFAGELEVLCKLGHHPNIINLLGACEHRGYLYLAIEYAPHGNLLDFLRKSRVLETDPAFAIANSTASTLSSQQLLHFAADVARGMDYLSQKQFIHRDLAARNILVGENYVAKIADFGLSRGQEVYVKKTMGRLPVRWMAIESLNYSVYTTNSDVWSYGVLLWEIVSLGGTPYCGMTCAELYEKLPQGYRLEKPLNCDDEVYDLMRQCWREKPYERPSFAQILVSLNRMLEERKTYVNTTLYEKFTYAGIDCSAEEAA
Method in brief: as §1

Lyn = biological target: T10, Lyn (Homo sapiens, UniProt P07948); test: Kinase inhibition assay (33P transfer), Lyn; settings: Table 6, Lyn-1 kinase inhibition class
T10 construct: Kinases are expressed as either kinase domains or full length constructs; made in house
T10 sequence (P07948 whole entry, species assumed, the tested form may be a part): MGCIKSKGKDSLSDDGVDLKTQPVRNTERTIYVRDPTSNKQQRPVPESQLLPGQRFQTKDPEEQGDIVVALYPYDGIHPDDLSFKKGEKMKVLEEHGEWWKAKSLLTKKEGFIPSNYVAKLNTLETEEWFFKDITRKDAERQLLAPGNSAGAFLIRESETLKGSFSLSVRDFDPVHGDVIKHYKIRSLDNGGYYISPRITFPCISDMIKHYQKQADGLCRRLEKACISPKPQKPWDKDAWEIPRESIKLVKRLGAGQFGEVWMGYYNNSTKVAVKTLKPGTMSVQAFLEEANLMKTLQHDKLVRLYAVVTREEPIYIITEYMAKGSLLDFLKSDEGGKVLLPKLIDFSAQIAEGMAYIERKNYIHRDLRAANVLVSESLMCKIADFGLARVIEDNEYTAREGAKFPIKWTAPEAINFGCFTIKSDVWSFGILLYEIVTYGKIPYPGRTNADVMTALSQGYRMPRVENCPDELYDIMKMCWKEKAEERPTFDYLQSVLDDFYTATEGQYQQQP
Method in brief: as §1

T1 sequence (P09619 33-1106, species assumed): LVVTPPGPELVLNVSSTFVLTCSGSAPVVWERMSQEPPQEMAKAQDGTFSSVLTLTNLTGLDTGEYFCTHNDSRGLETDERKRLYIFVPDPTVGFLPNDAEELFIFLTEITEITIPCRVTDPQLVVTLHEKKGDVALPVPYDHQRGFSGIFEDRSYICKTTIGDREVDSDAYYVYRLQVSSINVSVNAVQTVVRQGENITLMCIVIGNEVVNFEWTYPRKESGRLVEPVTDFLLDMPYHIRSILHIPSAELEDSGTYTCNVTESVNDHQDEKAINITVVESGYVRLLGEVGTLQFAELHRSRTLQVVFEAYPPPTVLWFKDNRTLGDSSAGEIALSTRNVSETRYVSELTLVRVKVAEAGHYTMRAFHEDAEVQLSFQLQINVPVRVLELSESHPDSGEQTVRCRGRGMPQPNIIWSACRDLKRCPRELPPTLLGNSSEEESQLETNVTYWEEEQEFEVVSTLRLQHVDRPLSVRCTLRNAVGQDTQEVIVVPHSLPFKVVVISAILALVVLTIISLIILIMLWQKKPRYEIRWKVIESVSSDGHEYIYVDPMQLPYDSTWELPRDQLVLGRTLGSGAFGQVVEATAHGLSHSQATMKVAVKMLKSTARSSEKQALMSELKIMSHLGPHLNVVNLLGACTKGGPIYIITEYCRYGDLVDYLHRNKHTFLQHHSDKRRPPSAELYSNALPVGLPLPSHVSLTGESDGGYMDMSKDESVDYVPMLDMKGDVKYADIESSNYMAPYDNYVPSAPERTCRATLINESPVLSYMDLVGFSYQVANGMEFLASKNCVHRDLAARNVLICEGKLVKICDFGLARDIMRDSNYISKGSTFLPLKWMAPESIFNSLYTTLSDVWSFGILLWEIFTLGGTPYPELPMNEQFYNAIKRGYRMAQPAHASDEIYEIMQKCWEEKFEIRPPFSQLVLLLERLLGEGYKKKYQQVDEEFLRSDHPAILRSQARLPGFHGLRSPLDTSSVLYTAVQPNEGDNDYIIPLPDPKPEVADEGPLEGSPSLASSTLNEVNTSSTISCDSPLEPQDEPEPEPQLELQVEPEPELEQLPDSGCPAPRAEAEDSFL

| IC50 (PDGFRB) [µM] | IC50 (Hck-1) [µM] | IC50 (Kdr) [µM] | IC50 (FGFR1) [µM] | IC50 (Fyn) [µM] | IC50 (Itk) [µM] | IC50 (c-Met) [µM] | IC50 (Flt-1) [µM] | IC50 (Tek) [µM] | IC50 (Lyn) [µM] | SMILES |
| --- | --- | --- | --- | --- | --- | --- | --- | --- | --- | --- |
| < 0.821 | > 9.23 | < 0.821 | 0.821 to 4.92 | > 9.23 | > 9.23 | 7.18 to 9.23 | < 0.821 | > 9.23 | 0.821 to 4.92 | COc1cc(Nc2ncnc(-n3c(Nc4ccc(F)cc4)nc4ccccc43)n2)cc(OC)c1OC [Compound 387] |
|  | > 10.3 | 0.912 to 5.47 |  | 0.912 to 5.47 | > 10.3 | > 10.3 |  | 7.98 to 10.3 | 5.47 to 7.98 | COc1cc(Nc2ncnc(Nc3ccc(N4CCOCC4)cc3)n2)cc(OC)c1OC [Compound 101] |
| 0.923 to 5.54 | > 10.4 | < 0.923 | 0.923 to 5.54 | 0.923 to 5.54 | > 10.4 | > 10.4 | < 0.923 | > 10.4 | < 0.923 | COc1cc(Nc2ncnc(Nc3cc(-c4ccccc4)nn3C)n2)cc(OC)c1OC [Compound 394] |
| < 0.78 | > 8.78 | 0.78 to 4.68 | < 0.78 | > 8.78 | 6.83 to 8.78 | 6.83 to 8.78 | < 0.78 | 6.83 to 8.78 | > 8.78 | COc1cc(Nc2ncnc(-n3c(Nc4cccc(C(N)=O)c4)nc4ccccc43)n2)cc(OC)c1OC [Compound 377] |
| > 9.91 | > 9.91 | < 0.881 | 5.29 to 7.71 | 0.881 to 5.29 | 0.881 to 5.29 | < 0.881 | 0.881 to 5.29 | 7.71 to 9.91 | 0.881 to 5.29 | COc1cc(Nc2ncnc(Nc3cc(-c4ccc(Cl)cc4)n[nH]3)n2)cc(OC)c1OC [Compound 367] |
| < 0.827 | > 9.31 | < 0.827 | 0.827 to 4.96 | 0.827 to 4.96 | > 9.31 | 7.24 to 9.31 | > 9.31 | > 9.31 | < 0.827 | COc1cc(Nc2ncnc(-n3c(Nc4ccccc4C)nc4ccccc43)n2)cc(OC)c1OC [Compound 384] |
| 0.969 to 5.81 | > 10.9 | < 0.969 | < 0.969 | 5.81 to 8.48 | > 10.9 | 0.969 to 5.81 | 0.969 to 5.81 | 8.48 to 10.9 | 0.969 to 5.81 | COc1cc(Nc2ncnc(-n3c(Cl)nc4ccccc43)n2)cc(OC)c1OC [Compound 378] |
|  | > 11.9 | 1.06 to 6.36 |  | > 11.9 | > 11.9 | 9.27 to 11.9 |  | > 11.9 | < 1.06 | C#Cc1cccc(Nc2ncnc(Nc3cc(OC)c(OC)c(OC)c3)n2)c1 [Compound 74] |
|  | > 10.2 | 0.906 to 5.44 |  | 0.906 to 5.44 | > 10.2 | > 10.2 |  | > 10.2 | 5.44 to 7.93 | COc1cc(Nc2ncnc(Nc3ccc4c(c3)Cc3ccccc3-4)n2)cc(OC)c1OC [Compound 95] |
| 0.779 to 4.67 | > 8.76 | 0.779 to 4.67 | 4.67 to 6.82 | 0.779 to 4.67 | > 8.76 | 6.82 to 8.76 | 0.779 to 4.67 | 4.67 to 6.82 | 0.779 to 4.67 | COc1cc(Nc2ncnc(-n3c(Nc4cccc(C(=O)O)c4)nc4ccccc43)n2)cc(OC)c1OC [Compound 390] |
|  | > 10.1 | 0.902 to 5.41 |  | 0.902 to 5.41 | > 10.1 | > 10.1 |  | > 10.1 | 0.902 to 5.41 | COc1cc(Nc2ncnc(Nc3cc(OC)c(OC)c(OC)c3)n2)cc(OC)c1OC [Compound 76] |
